In patent publication US6120765A, “Urokinase plasminogen activator fragments” (Shiseido Co. Ltd., priority 1993, dated 2000):
Where no end group is shown, it is not given here.

System: Primary human keratinocytes
Test: Mitogenesis assay (3H-thymidine incorporation, DNA synthesis) in keratinocytes
Format: cell-based
Details: for 3H-thymidine uptake (mitogenesis) of Lys23-substituted 9-mers versus controls: keratinocytes, negative control no peptide, positive control K-GFD
Protocol: FIG. 1 is a bar graph which represents the effect of various uPA peptides on DNA synthesis in keratinocytes. Various concentrations of GFD peptides were tested in order to compare the mitogenic activity. After 24 h incubation with a peptide and 3H-thymidine, incorporated radioactivity was measured as described herein. Five concentrations were used for each peptide. For a given peptide the uppermost bar of the five represents 0.1 μM, the next lower bar 0.33 μM, the next lower bar 1 μM, the next lower bar 3.3 μM, and the lowest bar, 10 μM.
Mitogenesis Assay The effect of a peptide on mitogenesis was determined as a function of DNA synthesis as follows. Peptides (in phosphate buffered saline (PBS)) were added to the monolayers (grown as described herein) to a final concentration of either 0.1 μM, 0.33 μM, 1.0 μM, 3.3 μM, or 10 μM. 5 μL of ^3 H-thymidine (10 μCi/ml; Amersham, Arlington Heights, Ill.) in 150 μL KGM was added to the cultures concurrent with the peptides, and cells were harvested and lysed after 24 hours at 37° C. in distilled H2 O using a Tomtec cell harvester, and fixed with 70% ethanol. The lysed cells were then transferred to a nylon filter (Amersham, Arlington Heights, Ill.), Beta plate scintillation fluid was added (LKB), and radioactivity was measured using a Wallac 1205 beta plate counter. Control samples, incubated in the presence of phosphate-buffered saline (PBS) and ^3 H-thymidine gave control levels of radioactivity of approximately 400 cpm.
Cell Culture Primary human keratinocytes (Clonetics, Calif.) were cultured in 96-well plates (Corning, N.Y.) in serum-free medium (KGM medium, Clonetics) to 70-80% confluency on a monolayer culture at 37° C. in 5% C02.

| Sequence | 3H-thymidine uptake (mitogenesis) of Lys23-substituted 9-mers versus controls | concentration giving maximum level of mitogenic activity (24 h, tested 0.1-10 μM) [µM] | further results |
| --- | --- | --- | --- |
| SNAYFSDIH [A-GFD] | little different from negative control cells |  |  |
| SNEYFSDIH [E-GFD] | inhibited mitogenesis |  |  |
| SNKYFSNIH [9-mer, K-GFD printed in b183 with Asp instead of Asn] | increased uptake as compared with untreated cells | 1 | lowest concentration effective in stimulating mitogenesis (24 h, tested 0.1-10 μM): 0.33 µM |
| SNRYFSDIH [R-GFD] | greatly increased |  |  |
| TCVSNKYFSNIH [12-mer] |  |  | effect on keratinocyte stimulation (at other concentrations than 1 μM (0.1, 0.33, 3.3, 10 μM)): little, if any, effect; mitogenic activity (3H-thymidine incorporation) (only at 1 μM, 24 h): demonstrated mitogenic activity |
| TCVSNKYFSNIHWCN [15-mer] |  | 3.3 |  |
